# Data published in PubChem BioAssay (NCI).
#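 Test compounds were applied to cells in 96-well plates for 48 hours at 5 doses. GI50 is the concentration that inhibits growth by half. TGI is the concentration that stops growth completely.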
# Columns and labels:
# Test in all cases: NCI-60 cell line screen, 48 h
# 786-0 renal = test system: 786-0 renal
# A498 renal = test system: A498 renal
# A549 NSCLC = test system: A549 NSCLC
# ACHN renal = test system: ACHN renal
# BT-549 breast = test system: BT-549 breast
# CAKI-1 renal = test system: CAKI-1 renal
# CCRF-CEM leukemia = test system: CCRF-CEM leukemia
# COLO 205 colon = test system: COLO 205 colon
# DU-145 prostate = test system: DU-145 prostate
# HCC-2998 colon = test system: HCC-2998 colon
# HCT-116 colon = test system: HCT-116 colon
# HCT-15 colon = test system: HCT-15 colon
# HL-60(TB) leukemia = test system: HL-60(TB) leukemia
# HOP-62 NSCLC = test system: HOP-62 NSCLC
# HOP-92 NSCLC = test system: HOP-92 NSCLC
# HS 578T breast = test system: HS 578T breast
# HT29 colon = test system: HT29 colon
# IGROV1 ovarian = test system: IGROV1 ovarian
# K-562 leukemia = test system: K-562 leukemia
# KM12 colon = test system: KM12 colon
# LOX IMVI melanoma = test system: LOX IMVI melanoma
# M14 melanoma = test system: M14 melanoma
# MALME-3M melanoma = test system: MALME-3M melanoma
# MCF7 breast = test system: MCF7 breast
# MDA-MB-231 breast = test system: MDA-MB-231 breast
# MDA-MB-435 = test system: MDA-MB-435
# MOLT-4 leukemia = test system: MOLT-4 leukemia
smiles,measurement,setting,value
NCCOCCOCCNc1nc(Cc2ccccc2)nc(NCCCN2CCCC2=O)n1,GI50,786-0 renal,> 100 µM
same,TGI,786-0 renal,> 100 µM
same,GI50,A498 renal,> 100 µM
same,TGI,A498 renal,> 100 µM
same,GI50,A549 NSCLC,> 100 µM
same,TGI,A549 NSCLC,> 100 µM
same,GI50,ACHN renal,> 100 µM
same,TGI,ACHN renal,> 100 µM
same,GI50,BT-549 breast,> 100 µM
same,TGI,BT-549 breast,> 100 µM
same,GI50,CAKI-1 renal,> 100 µM
same,TGI,CAKI-1 renal,> 100 µM
same,GI50,CCRF-CEM leukemia,> 100 µM
same,TGI,CCRF-CEM leukemia,> 100 µM
same,GI50,COLO 205 colon,> 100 µM
same,TGI,COLO 205 colon,> 100 µM
same,GI50,DU-145 prostate,> 100 µM
same,TGI,DU-145 prostate,> 100 µM
same,GI50,HCC-2998 colon,> 100 µM
same,TGI,HCC-2998 colon,> 100 µM
same,GI50,HCT-116 colon,> 100 µM
same,TGI,HCT-116 colon,> 100 µM
same,GI50,HCT-15 colon,> 100 µM
same,TGI,HCT-15 colon,> 100 µM
same,GI50,HL-60(TB) leukemia,> 100 µM
same,TGI,HL-60(TB) leukemia,> 100 µM
same,GI50,HOP-62 NSCLC,> 100 µM
same,TGI,HOP-62 NSCLC,> 100 µM
same,GI50,HOP-92 NSCLC,> 100 µM
same,TGI,HOP-92 NSCLC,> 100 µM
same,GI50,HS 578T breast,> 100 µM
same,TGI,HS 578T breast,> 100 µM
same,GI50,HT29 colon,> 100 µM
same,TGI,HT29 colon,> 100 µM
same,GI50,IGROV1 ovarian,> 100 µM
same,TGI,IGROV1 ovarian,> 100 µM
same,GI50,K-562 leukemia,> 100 µM
same,TGI,K-562 leukemia,> 100 µM
same,GI50,KM12 colon,> 100 µM
same,TGI,KM12 colon,> 100 µM
same,GI50,LOX IMVI melanoma,> 100 µM
same,TGI,LOX IMVI melanoma,> 100 µM
same,GI50,M14 melanoma,> 100 µM
same,TGI,M14 melanoma,> 100 µM
same,GI50,MALME-3M melanoma,> 100 µM
same,TGI,MALME-3M melanoma,> 100 µM
same,GI50,MCF7 breast,> 100 µM
same,TGI,MCF7 breast,> 100 µM
same,GI50,MDA-MB-231 breast,> 100 µM
same,TGI,MDA-MB-231 breast,> 100 µM
same,GI50,MDA-MB-435,> 100 µM
same,TGI,MDA-MB-435,> 100 µM
same,GI50,MOLT-4 leukemia,> 100 µM
